Reference: the NIST ThermoML archive (doi:10.1021/acs.jced.9b00442)

How the values were obtained:
[1] = 100 kPa, Liquid; for electrical conductivity: Frequency=0.0006 MHz, Alternating current cell with electrodes; for viscosity: Concentric cylinders viscometry; for mass density: Vibrating tube method
[2] = refractive index (Na D-line) (dimensionless); settings: 100 kPa, Liquid, Standard Abbe refractometry

CC[N+](C)(C)CCCO.O=S(=O)([N-]S(=O)(=O)C(F)(F)F)C(F)(F)F
Settings	electrical conductivity [S/m]	mass density [kg/m3]	refractive index	viscosity [mPa·s]
[1], 283.15 K	0.049	–	–	–
[1], 288.15 K	0.069	1472.2	–	314
[1], 289.15 K	–	1471.4	–	–
[1], 290.15 K	–	1470.5	–	–
[1], 291.15 K	–	1469.6	–	–
[1], 292.15 K	–	1468.7	–	–
[1], 293.15 K	0.095	1467.8	–	220.1
[1], 294.15 K	–	1466.9	–	–
[1], 295.15 K	–	1466.1	–	–
[1], 296.15 K	–	1465.2	–	–
[1], 297.15 K	–	1464.3	–	–
[1], 298.15 K	0.125	1463.4	–	166
[1], 299.16 K	–	1462.5	–	–
[1], 300.16 K	–	1461.7	–	–
[1], 301.15 K	–	1460.8	–	–
[1], 302.15 K	–	1459.9	–	–
[1], 303.15 K	0.162	1459	–	125.4
[1], 304.15 K	–	1458.2	–	–
[1], 305.15 K	–	1457.3	–	–
[1], 306.15 K	–	1456.4	–	–
[1], 307.15 K	–	1455.5	–	–
[1], 308.15 K	0.204	1454.7	–	96.7
[1], 309.15 K	–	1453.8	–	–
[1], 310.15 K	–	1452.9	–	–
[1], 311.15 K	–	1452	–	–
[1], 312.15 K	–	1451.2	–	–
[1], 313.15 K	0.253	1450.3	–	76.8
[1], 314.15 K	–	1449.4	–	–
[1], 315.15 K	–	1448.6	–	–
[1], 316.15 K	–	1447.7	–	–
[1], 317.15 K	–	1446.8	–	–
[1], 318.15 K	0.309	1446	–	60.9
[1], 319.15 K	–	1445.1	–	–
[1], 320.15 K	–	1444.2	–	–
[1], 321.15 K	–	1443.4	–	–
[1], 322.15 K	–	1442.5	–	–
[1], 323.15 K	0.371	1441.6	–	49.5
[1], 324.15 K	–	1440.8	–	–
[1], 325.15 K	–	1439.9	–	–
[1], 326.15 K	–	1439	–	–
[1], 327.15 K	–	1438.2	–	–
[1], 328.15 K	–	1437.3	–	40.8
[1], 329.15 K	–	1436.4	–	–
[1], 330.15 K	–	1435.6	–	–
[1], 331.15 K	–	1434.7	–	–
[1], 332.15 K	–	1433.9	–	–
[1], 333.15 K	–	1433	–	34.5
[1], 334.15 K	–	1432.1	–	–
[1], 335.16 K	–	1431.3	–	–
[1], 336.15 K	–	1430.4	–	–
[1], 337.15 K	–	1429.6	–	–
[1], 338.15 K	–	1428.7	–	28.8
[1], 339.15 K	–	1427.8	–	–
[1], 340.15 K	–	1427	–	–
[1], 341.15 K	–	1426.1	–	–
[1], 342.15 K	–	1425.3	–	–
[1], 343.15 K	–	1424.4	–	24.6
[1], 344.15 K	–	1423.6	–	–
[1], 345.15 K	–	1422.7	–	–
[1], 346.15 K	–	1421.9	–	–
[1], 347.15 K	–	1421	–	–
[1], 348.15 K	–	1420.1	–	21.2
[1], 349.15 K	–	1419.3	–	–
[1], 350.15 K	–	1418.4	–	–
[1], 351.15 K	–	1417.6	–	–
[1], 352.15 K	–	1416.7	–	–
[1], 353.15 K	–	1415.9	–	18.7
[1], 354.15 K	–	1415	–	–
[1], 355.15 K	–	1414.2	–	–
[1], 356.15 K	–	1413.3	–	–
[1], 357.15 K	–	1412.5	–	–
[1], 358.15 K	–	1411.7	–	16.2
[1], 359.15 K	–	1410.8	–	–
[1], 360.15 K	–	1410	–	–
[1], 361.15 K	–	1409.1	–	–
[1], 362.16 K	–	1408.3	–	–
[1], 363.15 K	–	1407.4	–	14.3
[2], 283.15 K	–	–	1.4253	–
[2], 288.15 K	–	–	1.4241	–
[2], 293.15 K	–	–	1.4228	–
[2], 298.15 K	–	–	1.4215	–
[2], 303.15 K	–	–	1.4203	–
[2], 308.15 K	–	–	1.419	–
[2], 313.15 K	–	–	1.4176	–
[2], 318.15 K	–	–	1.4164	–
[2], 323.15 K	–	–	1.4151	–
[2], 328.15 K	–	–	1.4139	–
[2], 333.15 K	–	–	1.4126	–
[2], 338.15 K	–	–	1.4114	–
[2], 343.15 K	–	–	1.4101	–
[2], 348.15 K	–	–	1.4089	–
[2], 353.15 K	–	–	1.4076	–
[2], 358.15 K	–	–	1.4064	–
